Test results taken from the METLIN SMRT retention time set (Domingo-Almenara et al. 2019).

Assay: gradient 5% acetonitrile 3 min, to 50% in 2 min, to 85% in 15 min, held 3 min, 100 µL/min
Details: column: Zorbax Extend-C18 2.1 x 50 mm; eluents: water / acetonitrile, 0.1% formic acid
Procedure, shortened: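 Pure standards were run in mixtures of ~100 molecules by HPLC coupled to a quadrupole time-of-flight mass spectrometer. The column was a Zorbax Extend-C18 (2.1 × 50 mm, 1.8 μm) at 100 μL/min, with water and acetonitrile each containing 0.1% formic acid, in positive and negative ionization mode. Dead and dwell volumes were 40 μL and 900 μL. Retention time was taken from computationally picked adduct peaks, each manually inspected, with data collected over 3 months.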

Row | RP-LC retention time | SMILES
1 | 690 s | CCOC(=O)C1C(=O)NC(N2CCc3ccccc32)=NC1c1ccco1 (configuration not stated)
2 | 613 s | CCC(=O)N1CCc2cc(C(N)=O)ccc21
3 | 877 s | Cc1cccc(-c2csc3c(=O)n(Cc4ccccn4)cnc23)c1
4 | 615 s | Cc1ccc(C)c(NC(=O)N2CCN(c3cc(-c4ccncc4)[nH]n3)CC2)c1
5 | 633 s | CCN(CC)S(=O)(=O)c1ccc2c(c1)N(CC(=O)NCCN(C)C)C(=O)C1CCCCN21 (configuration not stated)
6 | 600 s | CN(C(=O)Cc1ccsc1)C1CCc2nn(C)c(=O)n2CC1 (configuration not stated)
7 | 952 s | Cc1ccc(Cn2nc3n(Cc4ccc(F)cc4)c(=O)c4nn(C)cc4n3c2=O)cc1
8 | 680 s | COc1ccc(-c2c(C)noc2NC(C)=O)cc1S(=O)(=O)N1CCC2(CC1)OCCO2
9 | 967 s | COC(=O)c1ccc2c(=O)n(-c3ccc(F)c(Cl)c3)c(N3CCOCC3)nc2c1
10 | 591 s | COCCN1CCC(N2CCCN(S(=O)(=O)c3ccc(C)cc3)CC2)C1=O (configuration not stated)
11 | 762 s | Cc1ccc(NC(=O)C2CCCN(C(=O)C3Sc4ccccc4NC3=O)C2)c(C)c1 (configuration not stated)
12 | 864 s | Cc1c(Cl)cccc1NC(=O)NC1CCN(c2ccc(F)cc2)C1=O (configuration not stated)
13 | 577 s | Nc1nccn(Cc2ccc(F)cc2F)c1=O
14 | 1050 s | Cc1ccc(-c2cc(C(=O)NC3CCC(C)CC3)c(C)[nH]2)cc1 (configuration not stated)
15 | 658 s | Cc1nnc2cc(N3CCN(C(=O)Nc4ccc(F)c(Cl)c4)CC3)cnn12
16 | 930 s | Cc1nc(C)c(C(=O)Nc2nc(-c3ccccc3)c(C)s2)s1
17 | 702 s | COc1ccccc1CCC(=O)N1CCCn2nc(-c3cccs3)cc2C1
18 | 660 s | O=C(NCCc1nc(-c2ccc3c(c2)OCO3)n[nH]1)c1cc(F)ccc1Cl
19 | 970 s | Cc1cnc(SCc2ccc(Cl)cc2Cl)[nH]c1=O

Row | RP-LC retention time | SMILES
20 | 804 s | O=C1NCCCn2cc(S(=O)(=O)N3CCN(c4ccc(Cl)cc4)CC3)cc21
21 | 866 s | CCCN1C(=O)c2cc(C(=O)NCc3cccc(C)c3)nn2CC1(C)C(=O)NC1CCCC1 (configuration not stated)
22 | 643 s | COc1ccccc1C(=O)N1CCC(n2cnnc2-c2ccccc2)C1 (configuration not stated)
23 | 599 s | CCc1cc(=O)n(CC(=O)Nc2ccc(F)cc2C)c(N)n1
24 | 1010 s | O=C(Nc1cc(F)ccc1Cl)c1cnc(-c2ccc(F)cc2)nc1-c1ccncc1
25 | 608 s | Cc1ccc(-n2nc(C(=O)N3CCN(c4ccccn4)CC3)c3ncn(C)c(=O)c32)cc1
26 | 982 s | CCOC(=O)c1cc(S(=O)(=O)N2CCCC2C(=O)Nc2cc(F)ccc2F)cn1C (configuration not stated)
27 | 1130 s | Cc1cccc(Oc2nccnc2N2CCC(C(=O)NC(C)c3ccc(C)c(C)c3)CC2)c1 (configuration not stated)
28 | 662 s | COC(=O)CNC(=O)NC(C)C(=O)N1CCc2ccccc21 (configuration not stated)
29 | 792 s | COc1cc(OC)cc(C(=O)N2CCC(C(=O)NCCc3csc(-c4cccs4)n3)CC2)c1
30 | 727 s | Cc1ccc(S(=O)(=O)NC2CCN(C(=O)C3CC(=O)N(C4CCCC4)C3)CC2)cc1 (configuration not stated)
31 | 571 s | Cc1cc(N2CCCC2)n2nc(CN3CCCC(C)C3)nc2n1 (configuration not stated)
32 | 634 s | O=C(CN1CC(c2nc(-c3cccnc3)no2)C1)Nc1cc(C(F)(F)F)ccc1Cl
33 | 810 s | Cc1nc(-c2noc(-c3ccccc3)n2)cn1CC(=O)NCc1ccccc1
34 | 778 s | CCN1CCCn2cc(S(=O)(=O)Nc3ccc(C)c(C)c3)cc2C1=O
35 | 887 s | COc1ccc(Cl)cc1NC(=O)Cn1cccc(-c2nc(-c3ccc(OC)c(OC)c3)no2)c1=O
36 | 607 s | COc1ccc(-c2nc(Cn3ccnc3C)no2)cc1
37 | 746 s | O=C(NCc1ccc(F)cc1)C1CCCN(c2ncnc3c2oc2ccccc23)C1 (configuration not stated)
